In ChEMBL document CHEMBL6092150, “Exploration of isatin-based inhibitors of SARS-CoV-2 Nsp15 endoribonuclease” (Eur J Med Chem, 2024):
pIC50: −log10 of the molar value. The source made the active and inactive calls. No cut-off for these calls is given here.

Tests used:
[1] = biological target: Replicase polyprotein 1ab (Severe acute respiratory syndrome coronavirus 2) (UniProt P0DTD1); assay: Inhibition of SARS-CoV-2 recombinant GST-tagged nsp15 endonuclease activity using 5'-6-FAM-AArUAA-lowa Black FQ-3' as substrate assessed as cleavage of substrate at 100 uM measured every 2 min for 1 hrs by FRET-based Nsp15 EndoU assay relative to control
[2] = biological target: Replicase polyprotein 1ab (Severe acute respiratory syndrome coronavirus 2, UniProt P0DTD1); assay: (§1) Inhibition of SARS-CoV-2 recombinant GST-tagged nsp15 endonuclease activity using 5'-6-FAM-AArUAA-lowa Black FQ-3' as substrate assessed as cleavage of substrate measured every 2 min for 1 hrs by FRET-based Nsp15 EndoU assay
[3] = biological target: Replicase polyprotein 1ab (Severe acute respiratory syndrome coronavirus 2) (UniProt P0DTD1); assay: as §1
[4] = Cytotoxicity against human A549 cells by MTS cell viability analysis; type: toxicity, cell-based
MRC5 = assay: Cytotoxicity against human MRC5 cells at 100 uM incubated for 72 hrs by MTT cell viability assay; type: toxicity, cell-based; details: mrc5, 72 h
[5] = biological target: Replicase polyprotein 1ab (Severe acute respiratory syndrome coronavirus 2) (UniProt P0DTD1); assay: Effect on SARS-CoV-2 recombinant Nsp15 oligomerization state at 0.1 to 1 mM by Commassie-Native gel electrophoresis; details: dose 0.1-1 mM
Vero C1008 = assay: Cytotoxicity against african green monkey Vero E6 cells at 100 uM incubated for 72 hrs by MTT cell viability assay; type: toxicity, cell-based; details: chlorocebus sabaeus, vero c1008, 72 h

SMILES | inhibition [1] [%] | pIC50 [2] | inhibition [3] | CC50 [4] [µM] | Activity (MRC5) | Activity [5] | Activity (Vero C1008)
O=C1Nc2ccc(F)cc2C1=O | 13.6 | – | – | – | – | – | –
O=C1Nc2ccc(I)cc2C1=O | 26.2 | – | – | – | – | – | –
N#CC(C#N)=C1C(=O)Nc2ccc(I)cc21 | 32.6 | 3.82 | Dose-dependent-effect | – | – | – | –
N#CC(C#N)=C1C(=O)Nc2ccc(Br)cc21 | 55.9 | 4.08 | Dose-dependent-effect | – | – | – | –
N#CC(C#N)=C1C(=O)Nc2c(Br)cc(Br)cc21 | 68.1 | 4.27 | Dose-dependent-effect | 134 | Non-toxic | inactive | Non-toxic
O=C1Nc2c(Br)cc(Br)cc2C1=O | 58.4 | – | – | – | – | – | –
N#CC(C#N)=C1C(=O)Nc2ccc([N+](=O)[O-])cc21 | 61.5 | 4.36 | Dose-dependent-effect | 189 | Non-toxic | inactive | Non-toxic
O=C1Nc2ccc([N+](=O)[O-])cc2C1=O [5-NITROISATIN] | 40.7 | – | – | – | Non-toxic | – | Non-toxic
N#C[C@@]1(c2ccc3c(N)ncnn23)O[C@H](CO)[C@@H](O)[C@H]1O [GS-441524] | – | – | – | > 40 | – | – | –
N#CC(C#N)=C1C(=O)Nc2ccc(F)cc21 | 30.2 | 3.63 | Dose-dependent-effect | – | – | – | –
O=C1Nc2ccc(Br)cc2C1=O | 32.7 | – | – | – | – | – | –
